Reference: US9863701B2, “Compositions and methods for atmospheric spray freeze drying” (Aerosol Therapeutics, LLC, priority 2013, dated 2018)

Experiments:
[1] = Moisture content of powder after atmospheric spray freeze drying, original equipment; assay type: physicochemical; conditions: 15 wt % mannitol aqueous solution; dried 1 hr at around -15° C., then raised to room temperature within 30 minutes
Experimental: The apparatus is allowed to run for approximately 5 to 15 minutes to reach the desired temperature in the chamber 110, 210, 310 via gas cooled by a refrigeration system providing gas flow into the chamber 110 through the porous wall. The aqueous solution or suspension of the substances to be dried is then sprayed using the atomizer 102, 202, 302 and frozen simultaneously at a chosen temperature by the surrounding curtain of liquid nitrogen generated from ring nozzle 218, 318 or an equivalent such as cryogenic flow from nozzles 118 through porous sidewalls of chamber 110. The frozen powder is conveyed down to the exit filter 122, 222, 322 by the concurrent downstream flow. After spray freezing, drying begins. The frozen powder collected on the exit filter 122, 222, 322, at the bottom is dried continuously at atmospheric pressure until the target moisture of the frozen powder is removed by the cold desiccated gas stream. After atmospheric spray-freeze drying, a loose powder remains on the exit filter 122, 222, 322. This powder can easily be broken up into free flowing, dry porous particles usually of approximately the same size and shape as the original frozen droplets.
In one example, powder was produced using the method described above. […] The moisture content was measured to be only 0.9 wt %.

[2] = Moisture content of powder after ASFD run, second generation equipment; assay type: physicochemical; conditions: 10% BGG aqueous solution, 50 ml; spray gas 5 SCFM, drying 20 SCFM; after three hours and thirty minutes
Experimental: A typical ASFD run to dry Bovine Gamma Globulin (BGG) was conducted per a stepwise procedure like the following example. A solution of BGG was prepared such that the BGG constituted 10% by weight of an aqueous solution. Once the inner chamber was cooled to a temperature of −140° F., 50 ml of solution was sprayed at a rate of 1 ml per second and at a pressure of 40 psi into the reactor chamber after the flow of cooling gas had been decreased to 5 SCFM. A flow rate of 20 SCFM was then set for drying. Temperature during the first hour was set at 30° F., and increased by five degrees at hour two and hour three. […] After three hours and thirty minutes the powder was removed from the chamber and tested for water content.

Row | moisture content [1] [wt %] | Compound | moisture content [2] [%]
1 | 0.9 | OC[C@@H](O)[C@@H](O)[C@H](O)[C@H](O)CO [mannitol] | –
2 | – | Bovine Gamma Globulin [BGG] | 4.2
